# Reference: patent US11696921B2, “Synthetic composition for microbiota modulation” (GLYCOM A/S, priority 2015, dated 2023)
# Key:
# [1] = system: B. adolescentis phylogenetic group; assay: Faecal microbiota / Bifidobacterium profiling after 2 weeks' daily HMO consumption by healthy adults; type: in vivo, human; details: oral
# Description: (§1) A total of 100 male and female healthy adults are recruited to participate in the study. After a screening visit and run-in period of 1-2 weeks, the participants are selected and randomized into ten groups, each of 10 subjects. One group is administered a placebo product containing 2 grams of glucose. The remaining 9 groups are administered treatment product containing a) 20 g of 2′-FL, b) 10 g of 2′-FL, c) 5 g of 2′-FL, d) 20 g of LNnT, e) 10 g of LNnT, f) 5 g of LNnT, g) 20 g of a 2:1 mixture of 2′-FL and LNnT, h) 10 g of a 2:1 mixture of 2′-FL and LNnT, and i) 5 g of a 2:1 mixture of 2′-FL and LNnT for 2 weeks (the amounts correspond to a daily dose). The placebo and treatment products are in powder form in a unit dosage container.
# (§2) At the second visit, eligibility criteria are checked and eligible subjects are randomised to the ten arms in the trial (treatment groups and placebo group). The faecal samples are collected and equipment for new samples are distributed. Participants are familiarised with an interactive internet enabled system which recorded data daily and are provided with either treatment or control products. Subjects are reminded not to change their usual diet during the study. Blood samples are collected for biomarker studies. The faecal samples are stored at −80° C. until analysis.
# (§3) The study runs for 2 weeks with the participants consuming either a placebo or a treatment product daily. Participants are instructed to consume the products in the morning with breakfast. Compliance is monitored through the interactive internet enabled system.
# (§4) At the end of the study, each participant has an exit visit with the medical team. Faecal samples and blood samples are collected.
# (§5) To assess the microbiota profile, DNA is extracted from the faecal samples using a 96-well PowerSoil DNA Isolation Kit (MO-BIO). A minimum of one sample-well per plate is kept empty to serve as a negative control during PCR. PCR is done with the forward primer S-D-Bact-0341-b-S-17 and reverse primer S-D-Bact-0785-a-A-21 (Klindworth et al. Nucleic Acids Res. 41, e1 (2013)) with Illumina adapters attached. These are universal bacterial 16S rDNA primers, which targeted the V3-V4 region. The following PCR program is used: 98° C. for 30 sec, 25× (98° C. for 10 s, 55° C. for 20 s, 72° C. for 20 s), 72° C. for 5 min. Amplification is verified by running the products on a 1% agarose gel. Barcodes are added in a nested PCR using the Nextera Index Kit V2 (Illumina) with the following PCR program: 98° C. for 30 sec, 8× (98° C. for 10 s, 55° C. for 20 s, 72° C. for 20 s), 72° C. for 5 min. Attachment of primers is verified by running the products on a 1% agarose gel. Products from the nested PCR are normalized using the SequalPrep Normalization Plate Kit and pooled. Pooled libraries are concentrated by evaporation and the DNA concentration of pooled libraries is measured on a Qubit fluorometer using the Qubit High Sensitivity Assay Kit (Thermo Fisher Scientific). Sequencing is done on a MiSeq desktop sequencer using the MiSeq Reagent Kit V3 (Illumina) for 2×300 bp paired-end sequencing. The 64-bit version of USEARCH is used for bioinformatical analysis of the sequence data.
# (§6) To assess the Bifidobacterium community, ITS profiling of DNA samples is performed according to Milani et al. FEMS Microbiol. Ecol. 90, 493 (2014). […] Both B. adolescentis and B. pseudocatenulatum are members of the B. adolescentis phylogenetic group. It can be seen that oral ingestion of the HMOs clearly increases the abundance of B. adolescentis and/or B. pseudocatenulatum in the microbiota of healthy adults, as well as their relative abundance compared to the totality of other Bifidobacterium species.
# [2] = system: totality of B. longum + B. bifidum + B. animalis lactis + B. angulatum; assay: as above; type: in vivo, human; details: oral
# Description: as §1, §2, §3, §4, §5, §6
Molecule,percentage increase of B. adolescentis phylogenetic group in human faeces ([1]; 5 g daily dose),percentage increase of B. adolescentis phylogenetic group in human faeces ([1]; 10 g daily dose),percentage increase of B. adolescentis phylogenetic group in human faeces ([1]; 20 g daily dose),percentage increase of totality of B. longum + B. bifidum + B. animalis lactis + B. angulatum in human faeces ([2]; 5 g daily dose),percentage increase of totality of B. longum + B. bifidum + B. animalis lactis + B. angulatum in human faeces ([2]; 10 g daily dose),percentage increase of totality of B. longum + B. bifidum + B. animalis lactis + B. angulatum in human faeces ([2]; 20 g daily dose)
2′-fucosyllactose [2′-FL],50%,325%,120%,0%,20%,15%
"CC(=O)N[C@H]1[C@H](O[C@H]2[C@@H](O)[C@@H](CO)O[C@@H](O[C@H]3[C@H](O)[C@@H](O)C(O)O[C@@H]3CO)[C@@H]2O)O[C@H](CO)[C@@H](O[C@@H]2O[C@H](CO)[C@H](O)[C@H](O)[C@H]2O)[C@@H]1O (mixture of isomers) [LNnT, lacto-N-neotetraose]",90%,195%,185%,50%,130%,105%
